PMC12423301, “Astrocytic monoamine oxidase B (MAOB)–gamma-aminobutyric acid (GABA) axis as a molecular brake on repair following spinal cord injury” (Signal Transduction and Targeted Therapy, 2025)
“Also recorded” adds a separate entry of the source.

Experiments:
rat SCI model [1] = assay: EC / LFB staining of rat spinal cord tissue; assay type: in vivo, Sprague-Dawley (SD) rats
Method: EC staining was performed as previously described.[71] The tissue sections were placed on a microscope slide, allowed to dry for 2 h, and then immersed in acetone for 5 min. The slides were incubated for 10 min at 22 ± 2 °C and then treated with EC solution (MERCK, Kenilworth, NJ, USA) for 30 min at 22 ± 2 °C. After the sections were rinsed with running water, they were placed on 5% iron alum (Sigma-Aldrich, F3629) until the gray matter was observed. The sections were differentiated using borax-ferricyanide solution (Borax, Sigma-Aldrich, 71997; Potassium ferricyanide, Sigma-Aldrich, 702587) and dehydrated using graded ethanol solutions of 70%, 90%, and 100% which were changed twice. The sections were mounted with permanent mounting medium (Fisher Scientific, Hampton, NH, USA) and finally observed under a light microscope (DM 2500, Leica, Wetzlar, Germany). LFB staining was performed as previously described.[70] The myelin sheath of axons in the tissue sections were stained with 1% luxol fast blue (Sigma-Aldrich, L0294) at 60 °C overnight. The sections were rinsed with lithium carbonate (Sigma-Aldrich, 255823) solution and differentiated by 70% alcohol and then observed under a light microscope (IX71, Olympus, Tokyo, Japan).

rat SCI model [2] = assay: Ki67 promoter dual-virus labeling of proliferating cells; assay type: in vivo, Sprague-Dawley (SD) rats; conditions: SCI + KDS 2w, PI 10w
monkey SCI model = assay: Monkey SCI model: tissue sections and immunohistochemistry; assay type: in vivo, cynomolgus macaques (Macaca fascicularis)
Method: For the nonhuman primate SCI model, female cynomolgus macaques were anesthetized with Zoletil 50 (8–10 mg/kg; Virbac Korea) and isotropy 100. Laminectomy was performed at thoracic level 8 under X-ray guidance, and the SCI model was established using a vessel clip (Micro Serrefine Clamp, 1805501, Fine Science Tools; 60 g pressure, 19 mm) applied for 10 min. After surgery, the monkeys were monitored until full recovery, with precautions taken to prevent hypothermia and dehydration. For pressure ulcers, antibacterial drugs were administered, and sugar therapy was applied as needed.
To determine the appropriate dosing for macaques, interspecies dose translation was performed according to the U.S. FDA’s Guidance for Industry (2005), using body surface area (BSA)-based conversion with species-specific Km values.
On the basis of this calculation, two doses were selected: 3 mg/kg/day (~60% of the HED) for evaluating the minimal effective dose, and 10 mg/kg/day (approximately 2× HED) for assessing upper tolerability and therapeutic margin.
Immunohistochemistry was performed as previously described.[70] The tissue sections were blocked and treated with primary antibodies. After overnight incubation at 4 °C, species-specific fluorescent secondary antibodies were applied for visualization. The tissue sections were then stained with 4’,6-diamidino-2-phenylindole (DAPI) during mounting. This protocol allows a detailed assessment of various cellular markers involved in SCI and recovery processes.

[3] = Blood chemistry and liver function in monkey SCI model; assay type: in vivo, cynomolgus macaques (Macaca fascicularis)
Method: Blood samples were collected from the animals via the radial or femoral vein at three time points: 2 days, 2 weeks, and 5 weeks post-injury. All the animals were fasted for approximately 16 h prior to each collection, with water provided ad libitum. Approximately 2.0 mL of blood was drawn and placed into tubes without anticoagulant and left at room temperature for at least 90 min. The samples were then centrifuged at 3000 rpm for 10 min at room temperature to separate the serum. Finally, the serum samples were analyzed for creatinine (CREA), alkaline phosphatase (ALP), gamma-glutamyl transpeptidase (GGT), total bilirubin (TBIL), ALB, ALT, and aspartate aminotransferase (AST) levels. These biochemical parameters were measured using a TBA 120FR chemistry analyzer (Toshiba Co.).

[4] = system: diphtheria toxin receptor-inducible transgenic mice; assay type: in vivo, mouse
[5] = design: method as in PMID 30906861; conditions: cited from earlier work
[6] = system: Alzheimer’s disease mouse model; conditions: cited from earlier work
in vivo = conditions: Sprague-Dawley, rat
[7] = GLP toxicity tests in monkeys

CS(=O)(=O)O.C[C@H](NCc1ccc(-c2ccc(C(F)(F)F)cc2)cc1)C(N)=O [KDS2010, (S)-2-(((4’-Trifluoromethylbiphenyl-4-yl)methyl)amino)propanamide methane-sulfonate]
tissue recovery (total cord area, myelinated area) (rat SCI model [1]; 10, 20, and 30 mpk, PI 10w): significant tissue recovery | total spinal cord, myelinated, gray matter areas and cavity size (EC staining) (rat SCI model [1]; SCI + KDS 2w vs SCI + V, PI 10w): significantly recovered | total spinal cord and myelinated areas (rat SCI model [1]; SCI + KDS 1 d/Re, PI 10w): significantly recovered | total spinal cord and myelinated areas (rat SCI model [1]; SCI+KDS 6w vs SCI+V, PI 14w): tendency toward larger; also recorded: increasing trend | mCh-positive signals (axon fibers from proliferating/proliferated cells) (rat SCI model [2]): traversed the core of the injury site | hematoma and cavity formation at the injury site (monkey SCI model; 3 or 10 mpk from the acute phase, PI 5w): significantly reduced | MAP2 intensity vs SCI + V (monkey SCI model; SCI + KDS 3 mpk, PI 5w): tended to increase | MAP2 intensity vs SCI + V (monkey SCI model; SCI + KDS 10 mpk, PI 5w): significantly greater | astrocytic MAOB (monkey SCI model; both KDS treatment groups (3 and 10 mpk), PI 5w): significantly reduced | pharmacologically active dose (PAD) (monkey SCI model; cynomolgus macaques, for 5 weeks): 3 mpk | signs of hepatic and muscle stress ([3]; 3 mpk): no signs of stress | creatine kinase (CK) and alanine transaminase (ALT) levels ([3]; 10 mpk, PI 2w): transient increases | CK and ALT levels ([3]; 10 mpk, PI 5w): returned to normal | albumin (ALB) levels ([3]; 10 mpk, PI 5w): moderate reduction | No-Observed-Adverse-Effect Level (NOAEL) ([3]; monkey SCI model): 3 mpk | brain atrophy [4]: restored to the level of control group | neurofilament (NF) [4]: reducing | neuronal factors NeuN and MAP2 [4]: increasing | survival [4]: increase in survival | permeability across the blood‒brain barrier [5]: highly permeable | learning and memory impairment [6]: reverse learning and memory impairment | MTD (in vivo; po): 700 mg/kg | NOAEL at 4 weeks (in vivo; female, NOAEL): 30 mg/kg | NOAEL at 4 weeks (in vivo; female, human equivalent dose (HED) of NOAEL): 4.84 mg/kg | NOAEL at 4 weeks (in vivo; male, NOAEL): 50 mg/kg/day | adverse effects ([7]; oral 0, 10, 20, and 40 mg/kg for 4 weeks, 2 weeks recovery): no adverse effects related to the test substance | mortality ([7]; oral 2 weeks, 100 mg/kg/day male and female, 50 mg/kg/day male): a dying condition or mortality was observed
